Measured values: PMC8850458, “The AUTOTAC chemical biology platform for targeted protein degradation via the autophagy-lysosome system” (Nature Communications, 2022)
pIC50: −log10 of the molar value. Where “and” joins values, the source holds several entries; their conditions need not be identical. Equal values may be shown once.

How the values were obtained:
[1] = tested on: U87-MG glioblastoma cells; experiment: Wound healing assay in U87-MG cells; format: cell-based; set-up: wound area, single experiment / wound area, Average: unit not given here; settings: Fig. S4j
Experimental: To analyze cell migration in two dimensions, U-87 MG or ACHN cells were plated to a monolayer. Cells were scratched with a sterile 10 μl pipette tip and the debris was removed using medium. Cells were treated with compounds and incubated for different time to monitor cell behavior. Photographs were obtained using a microscope at different time point.

Ub^+ and p62^+ puncta = experiment: ICC of Ub (FK2) and p62 puncta in HeLa cells; format: cell-based; settings: Fig. 4i
Experimental: Fig. 4 Targeted autophagic delivery and degradation of misfolded protein cargoes using AUTOTACs with aggregate-binding warhead. a A model illustrating the mode of action of aggregate-targeting AUTOTAC. b Chemical structures of PBA-1105, PBA-1106, Anle138b-F105 and PBA-1105b. c In vitro p62 oligomerization assay in HEK293T cells incubated with the indicated compounds in (b). d WB in HEK293T cells treated with MG132 (1 μM, 24 h), HCQ (10 μM, 24 h), PBA-1105, YTK-1105, and PBA (1 μM, 24 h). e Identical to (d), but with Anle-F105. f ICC of HeLa cells treated with HCQ (10 μM, 24 h), MG132 (2 μM, 18 h) or both in the presence of PBA-1106, YOK-1106 or PBA (1 μM, 24 h). Scale bar, 10 μm. g Quantification of (f) (n = 3, 50 cells). h ICC of HeLa cells treated with Anle138b-F105 (1 μM, 24 h). Scale bar, 10 μm. i Quantification of (h) (n = 3, 50 cells). When indicated, n = 3 biologically independent experiments each counting 50 cells. Data are presented as mean values ± SD where relevant. P-values (from a two-sided unpaired t test): ***P < 7.66E−05. Source data are provided with this paper.
Cells were cultured on coverslips coated with poly-L-lysine (Sigma) to observe cellular localization of proteins. Using 4% paraformaldehyde in PBS (pH 7.4), the cells were fixed for 15 min at room temperature and washed three times for 5 min with PBS. After fixing, the cells were permeabilized with 0.5% Triton X-100 in PBS solution for 15 min and washed three times with PBS for 5 min. The cells were blocked containing 2% BSA in PBS solution for 1 h at room temperature. Subsequently, the cells were incubated with primary antibody diluted in 2% BSA/PBS solution overnight at 4 °C, followed by washing the cells three times for 10 min with PBS and incubated with Alexa Fluor-conjugated secondary antibody diluted in 2% BSA/PBS for 30 min at room temperature. Using a DAPI-containing mounting medium (Vector Laboratories), the coverslips were mounted on glass slides. Confocal images were taken by laser scanning confocal microscope 510 Meta (Zeiss) and analyzed by Zeiss LSM Image Browser (ver. 4.2.0.121). […] Quantification results are shown as mean ± S.D. or S.E.M. of three independent experiments

tauP301L = tauP301L (Homo sapiens, UniProt P10636, P618L); experiment: WB degradation of tauP301L in SH-SY5Y-tauP301L cells; format: cell-based; settings: densitometry, dosage degradation, SH-SY5Y-Tau-TiFC; for Tau normalized to GAPDH and control, AVG %: average of N=3
tauP301L, sequence (P10636 1-441 isoform P10636-8 P301L): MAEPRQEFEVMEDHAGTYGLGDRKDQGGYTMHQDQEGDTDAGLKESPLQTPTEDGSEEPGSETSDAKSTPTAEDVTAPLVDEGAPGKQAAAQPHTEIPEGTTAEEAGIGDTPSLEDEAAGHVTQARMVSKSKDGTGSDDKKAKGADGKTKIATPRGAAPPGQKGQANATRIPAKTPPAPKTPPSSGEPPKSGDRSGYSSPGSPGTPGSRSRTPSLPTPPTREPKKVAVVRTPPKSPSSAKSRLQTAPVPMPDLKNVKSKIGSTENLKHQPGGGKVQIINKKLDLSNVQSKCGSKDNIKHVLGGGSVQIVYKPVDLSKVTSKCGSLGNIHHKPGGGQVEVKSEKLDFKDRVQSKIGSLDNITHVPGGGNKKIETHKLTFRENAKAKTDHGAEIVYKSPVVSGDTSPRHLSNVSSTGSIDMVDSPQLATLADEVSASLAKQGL
Experimental: (§1) Adherent cells were washed with phosphate-buffered saline (PBS) and cell pellets were lysed in SDS-based sample buffer (277.8 mM Tris-HCI, pH 6.8, 4.4% LDS, 44.4% (v/v) glycerol) containing beta-mercaptoethanol. Alternatively, cell pellets or protein supernatants were lysed in 5X Laemmli sample buffer. Whole-cell lysates were separated using SDS-PAGE, and transferred onto polyvinyllidene difluoride membranes at 100 V for 2 h at 4 °C. The membrane was incubated with a blocking solution consisting 4% skim milk in PBS solution for 30 min at room temperature and incubated with primary antibodies overnight, followed by incubation with host-specific HRP-conjugated secondary antibodies (1:10000 dilution). For signal detection, the membrane was developed with a mixture of ECL solution (Thermo Fisher Scientific) using X-ray films. Densitometry of developed bands was measured and analyzed with ImageJ (NIH, Bethesda).

[2] = biological target: T1, methionine aminopeptidase 2 (MetAP2) (Homo sapiens, UniProt P50579); experiment: Western blot degradation of MetAP2; format: cell-based; settings: 293T, 24 h
T1 construct: Targeted autophagic degradation of endogenous oncoproteins by AUTOTAC; endogenous in cells; host or cells: HEK293 / HEK293T, U87-MG
T1 sequence (P50579 whole entry): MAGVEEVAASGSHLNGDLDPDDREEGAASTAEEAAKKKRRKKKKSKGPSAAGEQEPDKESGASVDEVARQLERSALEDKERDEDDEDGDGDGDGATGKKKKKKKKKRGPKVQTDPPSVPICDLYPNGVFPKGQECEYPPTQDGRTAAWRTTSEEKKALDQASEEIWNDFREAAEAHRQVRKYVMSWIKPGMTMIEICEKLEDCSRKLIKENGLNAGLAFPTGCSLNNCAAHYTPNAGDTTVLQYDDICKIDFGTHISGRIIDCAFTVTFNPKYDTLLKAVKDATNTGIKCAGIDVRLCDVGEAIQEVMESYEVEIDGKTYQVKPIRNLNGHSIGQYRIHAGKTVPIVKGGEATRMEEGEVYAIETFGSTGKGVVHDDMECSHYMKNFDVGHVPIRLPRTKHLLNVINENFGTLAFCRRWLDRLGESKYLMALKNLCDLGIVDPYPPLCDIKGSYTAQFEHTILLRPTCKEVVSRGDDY
Experimental: as §1

ACHN cells = experiment: WST-based cell viability assay in ACHN cells; settings: for WST assay viability, AVG % / WST assay raw reading / WST assay viability relative to con = 100: ACHN; for WST assay raw reading / WST assay viability relative to con = 100: duplicates
[3] = 4h, relative to 0h, con 63.7844
[4] = 12h, relative to 0h, con 49.0497
[5] = 24h, relative to 0h, con 11.2855

COC1C(OC(=O)C=CC=CC=CC=CC(=O)O)CCC2(CO2)C1C1(C)OC1CC=C(C)C (stereo not shown) [fuma]
wound area, single experiment ([1]; 0h): 1171666 and 1405232 and 1275616 | wound area, Average % ([1]; 0h (reference = 100)): 100% | wound area, Average ([1]; 0h, con 1278325): 1284171 | wound area, single experiment ([1]; 4h): 1044299 and 1099925 and 1033344 | wound area, Average ([1]; 4h, con 815372): 1059189 | wound area, Average % [1, 3]: 82.4804% | wound area, single experiment ([1]; 12h): 806233 and 764432 | wound area, Average ([1]; 12h, con 627015): 778366 | wound area, Average % [1, 4]: 60.6123% | wound area, single experiment ([1]; 24h): 429520 and 509220 | wound area, Average ([1]; 24h, con 144265): 482653 | wound area, Average % [1, 5]: 37.5848%

Fc1ccc(COc2cccc(CNCCOCCOCCNc3cccc(-c4cc(-c5ccc6c(c5)OCO6)n[nH]4)c3)c2)cc1 [Anle.-F105]
FK2 (Ub) / p62 colocalization, AVG of cells per 50 cells (Ub^+ and p62^+ puncta; con vs Anle.-F105): 44.6667 | FK2 (Ub) / p62 colocalization, percentage AVG (Ub^+ and p62^+ puncta; con vs Anle.-F105): 89.3333 percentage | FK2 (Ub) / p62 colocalization, cells counted per 50 cells (individual replicates) (Ub^+ and p62^+ puncta; con vs Anle.-F105, count out of 50 cells): 44 and 42 and 48 | Tau normalized to GAPDH and control, AVG % (tauP301L; 1 nM): 89.5946% | Tau normalized to GAPDH and control, AVG % (tauP301L; 10 nM): 39.4372% | Tau normalized to GAPDH and control, AVG % (tauP301L; 100 nM): 27.9865% | Tau normalized to GAPDH and control, AVG % (tauP301L; 1 uM): 22.4452% | Tau normalized to GAPDH and control, AVG % (tauP301L; 2.5uM): 20.2653% | remaining activity at 2.5 µM (tauP301L; 2.5uM, read-out: (Tau normalized to GAPDH) normalized to control, percentage (individual replicates N=1, N=2, N=3)): 14.5% | Tau normalized to GAPDH and control, AVG % (tauP301L; 5uM): 9.605% | remaining activity at 5 µM (tauP301L; 5uM, read-out: (Tau normalized to GAPDH) normalized to control, percentage (individual replicates N=1, N=2, N=3)): 9.88% | Tau normalized to GAPDH and control, AVG % (tauP301L; 10uM): 11.8682% | remaining activity at 10 µM (tauP301L; 10uM, read-out: (Tau normalized to GAPDH) normalized to control, percentage (individual replicates N=1, N=2, N=3)): 10.3%

CO[C@@H]1[C@H](OC(=O)/C=C/C=C/C=C/C=C/C(=O)O)CC[C@]2(CO2)[C@H]1[C@@]1(C)O[C@@H]1CC=C(C)C [Fumagillin, reference compound]
MetAP2 normalized to control, AVG % ([2]; 2.5uM): 147.616% | MetAP2 normalized to control, AVG % ([2]; 10uM): 145.983%

Oc1ccc(-c2c(-c3ccccc3)nn3c(C(F)(F)F)cc(C(F)(F)F)nc23)cc1 [PHTPP, reference compound]
pIC50 (ACHN cells; ACHN cells, WST-based viability assay, read-out: cytotoxicity IC50): 4.74 | WST assay viability, AVG % (ACHN cells; 0.01uM): 98.8656% | WST assay raw reading (ACHN cells; 0.01uM): 1.014 and 0.955 | WST assay viability relative to con = 100 (ACHN cells; 0.01uM): 102.269 and 95.4624 | WST assay viability, AVG % (ACHN cells; 0.1uM): 95.5201% | WST assay raw reading (ACHN cells; 0.1uM): 0.951 and 0.96 | WST assay viability relative to con = 100 (ACHN cells; 0.1uM): 95.001 and 96.0392 | WST assay viability, AVG % (ACHN cells; 1uM): 90.0981% | WST assay raw reading (ACHN cells; 1uM): 0.95 and 0.867 | WST assay viability relative to con = 100 (ACHN cells; 1uM): 94.8856 and 85.3105 | WST assay viability, AVG % (ACHN cells; 10uM): 86.1757% | WST assay raw reading (ACHN cells; 10uM): 0.866 and 0.883 | WST assay viability relative to con = 100 (ACHN cells; 10uM): 85.1952 and 87.1563 | WST assay viability, AVG % (ACHN cells; 50uM): 10.8441% | WST assay raw reading (ACHN cells; 50uM): 0.239 and 0.204 | WST assay viability relative to con = 100 (ACHN cells; 50uM): 12.8629 and 8.825 | WST assay viability, AVG % (ACHN cells; 100uM): 2.365% | WST assay raw reading (ACHN cells; 100uM): 0.151 and 0.145 | WST assay viability relative to con = 100 (ACHN cells; 100uM): 2.711 and 2.019

COC1C(OC(=O)C=CC=CC=CC=CC(=O)NCCOCCOCCNCc2cccc(OCc3ccccc3)c2)CCC2(CO2)C1C1(C)OC1CC=C(C)C (stereo not shown) [fuma-105]
wound area, single experiment ([1]; 0h): 1322200 and 1143900 and 1293400 | wound area, Average % ([1]; 0h (reference = 100)): 100% | wound area, Average ([1]; 0h, con 1278325): 1253167 | wound area, single experiment ([1]; 4h): 1229909 and 1112400 and 1025300 | wound area, Average ([1]; 4h, con 815372): 1122536 | wound area, Average % [1, 3]: 89.576% | wound area, single experiment ([1]; 12h): 999235 and 1073250 and 992572 | wound area, Average ([1]; 12h, con 627015): 1021686 | wound area, Average % [1, 4]: 81.5283% | wound area, single experiment ([1]; 24h): 562341 and 671624 and 616277 | wound area, Average ([1]; 24h, con 144265): 616747 | wound area, Average % [1, 5]: 49.2151%
